Experimental data taken from patent publication US4202891A, “15-Oxygenated sterol compounds and the use of such compounds to inhibit the biosynthesis of sterols” (priority 1977, dated 1980).

What was measured:
HMG-CoA reductase [1] = assay: Reduction of the activity of HMG-CoA reductase in primary cultures of liver cells; type: cell-based, mouse; details: read-out: Concentrations Required for 50% Reduction of the Activity of HMG-CoA Reductase
Description: (§1) The primary liver cell cultures were prepared from 16-day-old (C57BL/6J fetuses and grown in chemically defined medium (serum-free) as described in the above cited publications. The L cells, a subline of NCTC clone 929 mouse fibroblasts, were grown in chemically defined medium (serum-free) as described in the publications. These L cells are transformed fibroblasts which are regarded as malignant since they will grow as tumors if injected into the mouse strain from which they were initially obtained.
(§2) The preparation of steroid-containing media, procedures for assays of the conversion of [1-^14 C]acetate into digitonin-precipitable sterols, fatty acids, and CO2 and methods for the measurement of DNA, protein, and HMG-CoA reductase were as described in the published articles. L cell cultures were preincubated with the 15-oxygenated sterols and their derivatives for 4 hours, then [1-^14 C]acetate was added at a concentration of 4 μmoles per ml (4 μCi per ml); or the L cell cultures were incubated for 5 hours with the 15-oxygenated sterols before they were harvested for determination of microsomal HMG-CoA reductase activity.
(§3) Conditions for incubating the 15-oxygenated sterols or their derivatives with liver cell cultures were similar to those described for L cell cultures except that the cultures were incubated with the test compounds for 12 hours before labeled acetate was added or before they were harvested for enzyme assay.
A number of the 15-oxygenated sterols have also been tested with respect to their effects on the activity and/or levels of the enzyme HMG-CoA reductase (3-hydroxy-3-methylglutaryl coenzyme A reductase) in the L cells and in the liver cells. As noted previously, this enzyme catalyzes the reduction of 3-hydroxy-3-methylglutaryl coenzyme A to yield mevalonic acid, an essential intermediate in the biosynthesis of sterols and of a number of other essential compounds in cells.
Using the technique described by Kandutsch and Chen in the article cited in the previous example, the concentrations of various 15-oxygenated sterols required to reduce the levels of activity of HMG-CoA reductase by 50% was determined in the cells of the L cells in culture and of the primary cultures of liver cells.

[2] = test system: sterol biosynthesis in L cells; assay: Inhibition of sterol synthesis from [1-14C]acetate in L cell cultures; type: cell-based; details: Mus musculus; L cell cultures; read-out: Concentrations Required for 50% Inhibition of Sterol Synthesis
In short: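 Mouse L cells (NCTC clone 929 subline) in serum-free defined medium, preincubated 4 h with 15-oxygenated sterols, then given [1-14C]acetate at 4 μmoles per ml (4 μCi per ml). Sterol synthesis expressed as [14C]sterols/[14C]fatty acids ratio; 50% inhibitory concentration located over at least 4 compound concentrations.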

[3] = test system: sterol biosynthesis in primary cultures of mouse liver cells; assay: Inhibition of sterol synthesis from [1-14C]acetate in primary cultures of liver cells; type: cell-based; details: primary cultures of liver cells, read-out: Concentrations Required for 50% Inhibition of Sterol Synthesis
Description: The effect of various 15-oxygenated sterols on sterol biosynthesis in L cells and in primary cultures of mouse liver cells was tested essentially under conditions described in detail previously [A. A. Kandutsch and H. W. Chen, J. Biol. Chem., Vol. 248, pp. 8408-8417 (1973) and A. A. Kandutsch and H. W. Chen, J. Biol. Chem., Vol. 249, pp. 6057-6061 (1974`)].
as §1, §2, §3
The test compounds were tested over a range of at least 4 concentrations and the assay was repeated until the concentration of test compound required to produce 50% inhibition was located on the steeply declining portion of an activity vs. concentration plot. To diminish any possible effects of generalized differences in cellular metabolism, the rates of sterol synthesis from [1-^14 C]acetate were calculated as the ratio of [^14 C]sterols to [^14 C]fatty acids as described in the two cited articles by Kandutsch and Chen.

plasma cholesterol = assay: Plasma cholesterol concentration in mice, ketone in diet (Example 47); type: in vivo, mouse; details: 0.2% in diet; after eight days; 7-week-old mice
Description: (§4) Another dietary experiment with 5β-cholest-8(14)-en-3β-ol-15-one was performed using 7-week-old mice. Five mice were fed the ketone at a level of 0.2% in a diet which was essentially free of animal sterols for eight days. Five control pair-fed mice were fed the same diet to which the ketone was not added. The mean plasma cholesterol concentration in the ketone group after the eight day experiment was 35.8(±3.6, standard error of mean) mg per 100 ml of plasma while the corresponding value for the pair-fed group was 114.4 (±3.4, standard error of mean). It should be noted that very closely matched pairfeeding is difficult to perform in mice of this age due to the small amounts of food which are consumed and which must be accurately determined in such experiments.

HMG-CoA reductase [4] = assay: Reduction of the activity of HMG-CoA reductase in L cell cultures; type: cell-based, mouse; details: read-out: Concentrations Required for 50% Reduction of the Activity of HMG-CoA Reductase
In short: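 Mouse L cells (NCTC clone 929 fibroblast subline) grown in serum-free chemically defined medium were incubated 5 h with 15-oxygenated sterols, then harvested for microsomal HMG-CoA reductase activity. Value is the sterol concentration reducing reductase activity by 50%.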

[5] = Body weight of mice, ketone in diet (Example 47); type: in vivo, mouse; details: 0.2% in diet; eight days; 7-week-old mice
Description: as §4, with “Another dietary experiment with 5β-cholest-8(14)-en-3β-ol-15-one was performed using 7-week-old mice.” left out

serum cholesterol = assay: Effect on serum cholesterol levels in rats, daily subcutaneous injection (Examples 41, 42); type: in vivo, rat (male, Sprague-Dawley); details: day 3
In short: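 Male Sprague-Dawley rats (110–190 g, chow-fed) received test sterols subcutaneously once daily, most at 5 mg in 0.25 ml triolein. 5α-Cholest-8(14)-en-3β-ol-15-one was given at 2 mg in 0.2 ml or 5 mg in 0.5 ml olive oil. Controls received vehicle; serum cholesterol was measured periodically, in duplicate.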

[6] = 2 mg s.c. once a day in 0.2 ml olive oil
[7] = 5 mg s.c. once a day in 0.5 ml olive oil

CC(C)CCC[C@@H](C)[C@H]1CC(=O)C2=C3CC[C@H]4C[C@@H](O)CC[C@]4(C)[C@H]3CC[C@@]21C [5α-Cholest-8(14)-en-3β-ol-15-one, 5α-cholest-8(14)-en-3β-ol-15-one]
IC50 (HMG-CoA reductase [1]): 4000 nM
IC50 [2]: 100 nM
IC50 [3]: 4000 nM
mean plasma cholesterol concentration (standard error of mean) (plasma cholesterol): 35.8 mg per 100 ml of plasma
IC50 (HMG-CoA reductase [4]): 300 nM
average decrease in body weight (standard error of mean) [5]: 5.9 g
% Reduction (relative to olive oil-treated rats) (serum cholesterol; [6]): 12%
Serum Cholesterol (Mean ± S.E.M.) (serum cholesterol; [6]): 64.5 ± 2.5 mg per 100 ml
% Reduction (relative to olive oil-treated rats) (serum cholesterol; [7]): 22%
Serum Cholesterol (Mean ± S.E.M.) (serum cholesterol; [7]): 59.6 ± 2.2 mg per 100 ml
